# Active and inactive are the calls of the source. The calls are words filed in the database; no cut-off is given here.
# Tests used:
# Bile acid receptor = target: T1, Bile acid receptor (Homo sapiens, UniProt Q96RI1); assay: Agonist activity at human GST-fused FXR LBD assessed as coactivator interaction with receptor ligand binding domain by Alphascreen assay
# T1 sequence (Q96RI1 whole entry): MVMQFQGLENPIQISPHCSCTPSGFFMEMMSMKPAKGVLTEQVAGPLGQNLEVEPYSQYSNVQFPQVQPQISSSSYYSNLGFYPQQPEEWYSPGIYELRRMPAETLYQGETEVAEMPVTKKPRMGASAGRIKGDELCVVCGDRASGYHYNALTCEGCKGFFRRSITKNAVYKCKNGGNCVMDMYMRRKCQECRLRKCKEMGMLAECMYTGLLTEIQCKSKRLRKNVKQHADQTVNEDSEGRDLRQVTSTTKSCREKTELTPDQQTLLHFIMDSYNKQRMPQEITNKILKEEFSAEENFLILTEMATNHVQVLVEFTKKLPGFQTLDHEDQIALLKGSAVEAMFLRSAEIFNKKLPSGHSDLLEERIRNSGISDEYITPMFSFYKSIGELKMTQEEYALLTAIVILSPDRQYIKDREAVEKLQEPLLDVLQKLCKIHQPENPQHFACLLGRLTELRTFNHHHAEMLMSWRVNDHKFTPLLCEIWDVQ
# [1] = target: T2, Bile acid receptor (Homo sapiens) (UniProt Q96RI1); assay: Agonist activity at human GST-fused FXR LBD assessed as coactivator interaction with receptor ligand binding domain by Alphascreen assay relative to CDCA
# T2 sequence (whole entry): T1 sequence (Q96RI1 whole entry)
# [2] = target: T3, G-protein coupled bile acid receptor 1 (Homo sapiens, UniProt Q8TDU6); assay: Agonist activity at human TGR5 receptor expressed in NCI-H716 cells assessed as intracellular cAMP level by TR-FRET assay; assay type: functional, cell-based
# T3 sequence (Q8TDU6 whole entry): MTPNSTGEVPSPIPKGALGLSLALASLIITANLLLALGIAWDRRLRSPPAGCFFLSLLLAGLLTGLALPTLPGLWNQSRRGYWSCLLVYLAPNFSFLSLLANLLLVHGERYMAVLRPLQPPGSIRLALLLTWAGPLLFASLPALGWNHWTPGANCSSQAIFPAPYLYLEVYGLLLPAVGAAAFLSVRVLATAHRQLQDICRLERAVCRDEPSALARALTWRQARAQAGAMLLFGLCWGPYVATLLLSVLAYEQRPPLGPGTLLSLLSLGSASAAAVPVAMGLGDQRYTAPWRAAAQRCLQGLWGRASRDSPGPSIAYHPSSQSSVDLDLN
# [3] = target: T2, Bile acid receptor (Homo sapiens); assay: Agonist activity at human FXR expressed in HepG2 cells assessed as renilla luciferase activity at 1 uM by luciferase based transactivation assay; assay type: functional, cell-based
# [4] = target: T2, Bile acid receptor (Homo sapiens); assay: Agonist activity at human FXR expressed in HepG2 cells assessed as renilla luciferase activity at 20 uM by luciferase based transactivation assay; assay type: functional, cell-based
Activity [3],Structure (SMILES),EC50 (Bile acid receptor) [µM],Efficacy [1] [%],EC50 [2] [µM],Activity [4]
Active,CC[C@H]1[C@@H](O)[C@@H]2[C@H](CC[C@]3(C)[C@@H]([C@H](C)CCNC(=O)OC/C=C/c4ccccc4)CC[C@@H]23)[C@@]2(C)CC[C@@H](O)C[C@@H]12,0.15,290,55,
,C[C@H](CCNC(=O)OC/C=C/c1ccccc1)C1CC[C@H]2[C@@H]3[C@H](O)CC4C[C@H](O)CC[C@]4(C)[C@H]3CC[C@]12C (stereo partly drawn),0.9,55,> 100,Active
